Source: patent US20060069132A1, “Azolecarboxamide herbicides” (priority 2004, published 2006)

How the values were obtained:
kochia = assay: Test E pre-/postemergence herbicide test; assay type: in vivo, Kochia scoparia
Excerpt: (§1) Seeds of plant species selected from bipinnate beggarticks (Bidens bipinnata L.), hairy beggarticks (Bidens radiata Thuill.), bermudagrass (Cynodon dactylon (L.) Pers.), Surinam grass (Urochloa decumbens (Staph) R. D. Webster, previously named Brachiaria decumbens Stapf), large crabgrass (Digitaria sanguinalis (L.) Scop.), green foxtail (Setaria viridis (L.) P. Beauv.), goosegrass (Eleusine indica (L.) Gaertn.), johnsongrass (Sorghum halepense (L.) Pers.), kochia (Kochia scoparia (L.) Schrad.), pitted morningglory (Ipomoea lacunosa L.), purple nutsedge (Cyperus rotundus L.), common ragweed (Ambrosia elatior L.), mustard (Brassica nigra (L.) W. D. J. Koch), guineagrass (Panicum maximum Jacq.), dallisgrass (Paspalum dilatatum Poir.), barnyardgrass (Echinochloa crus-galli (L). P. Beauv.), southern sandbur (Cenchrus echinatus L.), common sowthistle (Sonchus oleraceous L.), prickly sida (Sida spinosa L.), Italian ryegrass (Lolium multiflorum Lam.), common purslane (Portulaca oleracea L.), broadleaf signalgrass (Brachiaria platyphylla (Griseb.) Nash), common groundsel (Senecio vulgaris L.), common chickweed (Stellaria media (L.) Vill/Cyr.), tropical spiderwort (Commelina benghalensis L.), annual bluegrass (Poa annua L.), downy bromegrass (Bromus tectorum L.), itchgrass (Rottboellia cochinchinensis (L.) L.f.), quackgrass (Elytrigia repens (L.) Nevski), Canada horseweed (Erigeron Canadensis L.), field bindweed (Convolvulus arvensis L.), spotted spurge (Euphorbia maculata L.), common mallow (Malva sylvestris (=s silvestris) L.), and Russian thistle (Salsola kali L. ssp. Ruthenica (Iljin) Soo) were planted and treated preemergence with test chemicals formulated in a non-phytotoxic solvent mixture which included a surfactant.
(§2) At the same time, plants selected from these weed species were treated with postemergence applications of some of the test chemicals formulated in the same manner. Plants ranged in height from 2 to 18 cm (1- to 4-leaf stage) for postemergence treatments. Treated plants and controls were maintained in a greenhouse for 12 to 14 days, after which time all species were compared to controls and visually evaluated. Plant response ratings, summarized in Table E, are based on a scale of 0 to 100 where 0 is no effect and 100 is complete control. A dash (-) response means no test result.

ducksalad = assay: Test D flooded paddy test; assay type: in vivo, Heteranthera limosa; settings: 21 days, scale 0 to 100
Excerpt: (§3) Three plastic pots (ca. 16-cm diameter) per rate were partially filled with sterilized Tama silt loam soil comprising a 35:50:15 ratio of sand, silt and clay and 2.6% organic matter. Separate plantings for each of the three pots were as follows. Seeds from the U.S. of ducksalad (Heteranthera limosa (Sw.) Willd.), smallflower umbrella sedge (Cyperus difformis L.) and purple redstem (Ammannia coccinea Rottb.), were planted into one 16-cm pot for each rate. Seeds from the U.S. of rice flatsedge (Cyperus iria L.), bearded sprangletop (Leptochloa fascicularis (Lam.) Gray), one stand of 9 or 10 water seeded rice seedlings (Oryza sativa L. cv. ‘Japonica—M202’), and one stand of 6 transplanted rice seedlings (Oryza sativa L. cv. ‘Japonica—M202’) were planted into one 16-cm pot for each rate. Seeds from the U.S. of barnyardgrass (Echinochloa crus-galli (L.) Beauv.), late watergrass (Echinochloa oryzicola Vasinger), early watergrass (Echinochloa oryzoides (Ard.) Fritsch) and junglerice (Echinochloa colona (L.) Link) were planted into one 16-cm pot for each rate. Plantings were sequential so that crop and weed species were at the 2.0 to 2.5-leaf stage at time of treatment.
(§4) Potted plants were grown in a greenhouse with day/night temperature settings of 29.5/26.7° C., and supplemental balanced lighting was provided to maintain a 16-hour photoperiod. Test pots were maintained in the greenhouse until test completion.
(§5) At time of treatment, test pots were flooded to 3 cm above the soil surface, treated by application of test compounds directly to the paddy water, and then maintained at that water depth for the duration of the test. Effects of treatments on rice and weeds were visually evaluated by comparison to untreated controls after 21 days. Plant response ratings are reported on a 0 to 100 scale; where 0 is no effect and 100 is complete control. A dash (-) response means no test result.

late watergrass = assay: Test D flooded paddy test; assay type: in vivo, Echinochloa oryzicola; settings: 21 days, scale 0 to 100
Excerpt: as §3, §4, §5

rice flatsedge = assay: Test D flooded paddy test; assay type: in vivo, Cyperus iria; settings: 21 days, scale 0 to 100
Excerpt: as §3, §4, §5

barnyardgrass = assay: Test D flooded paddy test; assay type: in vivo, Echinochloa crus-galli; settings: 21 days, scale 0 to 100
Excerpt: as §3, §4, §5

bearded sprangletop = assay: Test D flooded paddy test; assay type: in vivo, Leptochloa fascicularis; settings: 21 days, scale 0 to 100
Excerpt: as §3, §4, §5

junglerice = assay: Test D flooded paddy test; assay type: in vivo, Echinochloa colona; settings: 21 days, scale 0 to 100
Excerpt: as §3, §4, §5

early watergrass = assay: Test D flooded paddy test; assay type: in vivo, Echinochloa oryzoides; settings: 21 days, scale 0 to 100
Excerpt: as §3, §4, §5

purple redstem = assay: Test D flooded paddy test; assay type: in vivo, Ammannia coccinea; settings: 21 days, scale 0 to 100
Excerpt: as §3, §4, §5

[1] = system: water seeded rice seedlings; assay: Test D flooded paddy test; assay type: in vivo, Oryza sativa; settings: 21 days, scale 0 to 100
Excerpt: as §3, §4, §5

bipinnate beggarticks = assay: Test E pre-/postemergence herbicide test; assay type: in vivo, Bidens bipinnata; settings: Preemergence
Excerpt: as §1, §2

[2] = Preemergence, 62 g ai/ha, scale 0 to 100
[3] = Preemergence, 250 g ai/ha, scale 0 (no effect) to 100 (complete control)
[4] = Preemergence, 500 g ai/ha, scale 0 (no effect) to 100 (complete control)
[5] = 250 g ai/ha, scale 0 (no effect) to 100 (complete control)
[6] = 500 g ai/ha, scale 0 (no effect) to 100 (complete control)

CCn1nc(C(C)(C)C)cc1C(=O)Nc1cc(C(=O)N(C)C)ccc1F [Compound 6, N-[5-[(dimethylamino)carbonyl]-2-fluorophenyl]-3-(1,1-dimethylethyl)-1-ethyl-1H-pyrazole-5-carboxamide]
Plant response rating, Kochia (kochia; Postemergence, 500 g ai/ha, scale 0 to 100): 100 | Plant response rating, Kochia (kochia; Postemergence, 250 g ai/ha, scale 0 to 100): 100 | Plant response rating, Kochia (kochia; [2]): 100 | Plant response rating, Kochia (kochia; Preemergence, 125 g ai/ha, scale 0 (no effect) to 100 (complete control)): 100 | Plant response rating, Kochia (kochia; [3]): 100 | Plant response rating, Kochia (kochia; [4]): 100 | Plant response rating, Kochia (kochia; postemergence, 125 g ai/ha, scale 0 to 100): 100 | Plant response rating, Kochia (kochia; postemergence, 62 g ai/ha, scale 0 to 100): 100

CCNC(=O)c1ccnc(NC(=O)c2cc(C(C)(C)C)nn2CC)c1 [Compound 152]
Plant response rating, Ducksalad (ducksalad; 8 g ai/ha): 0 | Plant response rating, Ducksalad (ducksalad; 16 g ai/ha): 70 | Plant response rating, Ducksalad (ducksalad; 32 g ai/ha): 75 | Plant response rating, Ducksalad (ducksalad; 64 g ai/ha): 80 | Plant response rating, Ducksalad (ducksalad; 125 g ai/ha): 90 | Plant response rating, Watergrass, Late (late watergrass; 8 g ai/ha): 0 | Plant response rating, Watergrass, Late (late watergrass; 16 g ai/ha): 0 | Plant response rating, Watergrass, Late (late watergrass; 32 g ai/ha): 15 | Plant response rating, Watergrass, Late (late watergrass; 64 g ai/ha): 20 | Plant response rating, Watergrass, Late (late watergrass; 125 g ai/ha): 40 | Plant response rating, Kochia (kochia; [2]): 0 | Plant response rating, Kochia (kochia; Preemergence, 125 g ai/ha, scale 0 to 100): 85 | Plant response rating, Kochia (kochia; [3]): 85 | Plant response rating, Kochia (kochia; [4]): 95 | Plant response rating, Flatsedge, Rice (rice flatsedge; 8 g ai/ha): 75 | Plant response rating, Flatsedge, Rice (rice flatsedge; 16 g ai/ha): 75 | Plant response rating, Flatsedge, Rice (rice flatsedge; 32 g ai/ha): 75 | Plant response rating, Flatsedge, Rice (rice flatsedge; 64 g ai/ha): 90 | Plant response rating, Flatsedge, Rice (rice flatsedge; 125 g ai/ha): 95 | Plant response rating, Barnyardgrass (barnyardgrass; 8 g ai/ha): 0 | Plant response rating, Barnyardgrass (barnyardgrass; 16 g ai/ha): 0 | Plant response rating, Barnyardgrass (barnyardgrass; 32 g ai/ha): 0 | Plant response rating, Barnyardgrass (barnyardgrass; 64 g ai/ha): 10 | Plant response rating, Barnyardgrass (barnyardgrass; 125 g ai/ha): 35 | Plant response rating, Sprangletop, Bearded (bearded sprangletop; 8 g ai/ha): 30 | Plant response rating, Sprangletop, Bearded (bearded sprangletop; 16 g ai/ha): 30 | Plant response rating, Sprangletop, Bearded (bearded sprangletop; 32 g ai/ha): 30 | Plant response rating, Sprangletop, Bearded (bearded sprangletop; 64 g ai/ha): 35 | Plant response rating, Sprangletop, Bearded (bearded sprangletop; 125 g ai/ha): 40 | Plant response rating, Junglerice (junglerice; 8 g ai/ha): 0 | Plant response rating, Junglerice (junglerice; 16 g ai/ha): 0 | Plant response rating, Junglerice (junglerice; 32 g ai/ha): 0 | Plant response rating, Junglerice (junglerice; 64 g ai/ha): 0 | Plant response rating, Junglerice (junglerice; 125 g ai/ha): 30 | Plant response rating, Watergrass, Early (early watergrass; 8 g ai/ha): 0 | Plant response rating, Watergrass, Early (early watergrass; 16 g ai/ha): 0 | Plant response rating, Watergrass, Early (early watergrass; 32 g ai/ha): 0 | Plant response rating, Watergrass, Early (early watergrass; 64 g ai/ha): 0 | Plant response rating, Watergrass, Early (early watergrass; 125 g ai/ha): 45 | Plant response rating, Redstem (purple redstem; 8 g ai/ha): 0 | Plant response rating, Redstem (purple redstem; 16 g ai/ha): 0 | Plant response rating, Redstem (purple redstem; 32 g ai/ha): 60 | Plant response rating, Redstem (purple redstem; 64 g ai/ha): 85 | Plant response rating, Redstem (purple redstem; 125 g ai/ha): 90 | Plant response rating, Rice, Water Seeded ([1]; 8 g ai/ha): 0 | Plant response rating, Rice, Water Seeded ([1]; 16 g ai/ha): 20 | Plant response rating, Rice, Water Seeded ([1]; 32 g ai/ha): 30 | Plant response rating, Rice, Water Seeded ([1]; 64 g ai/ha): 40 | Plant response rating, Rice, Water Seeded ([1]; 125 g ai/ha): 45

CCc1nc(C(C)(C)C)sc1C(=O)Nc1cccc(C(=O)NCC2CC2)n1 [Compound 215]
Plant response rating, Ducksalad (ducksalad; 125 g ai/ha): 0 | Plant response rating, Ducksalad (ducksalad; 250 g ai/ha): 0 | Plant response rating, Ducksalad (ducksalad; 500 g ai/ha): 20 | Plant response rating, Ducksalad (ducksalad; 750 g ai/ha): 20 | Plant response rating, Ducksalad (ducksalad; 1000 g ai/ha): 75 | Plant response rating, Watergrass, Late (late watergrass; 125 g ai/ha): 0 | Plant response rating, Watergrass, Late (late watergrass; 250 g ai/ha): 0 | Plant response rating, Watergrass, Late (late watergrass; 500 g ai/ha): 20 | Plant response rating, Watergrass, Late (late watergrass; 750 g ai/ha): 20 | Plant response rating, Watergrass, Late (late watergrass; 1000 g ai/ha): 20 | Plant response rating, Flatsedge, Rice (rice flatsedge; 125 g ai/ha): 0 | Plant response rating, Flatsedge, Rice (rice flatsedge; 250 g ai/ha): 60 | Plant response rating, Flatsedge, Rice (rice flatsedge; 500 g ai/ha): 60 | Plant response rating, Flatsedge, Rice (rice flatsedge; 750 g ai/ha): 80 | Plant response rating, Flatsedge, Rice (rice flatsedge; 1000 g ai/ha): 90 | Plant response rating, Barnyardgrass (barnyardgrass; 125 g ai/ha): 0 | Plant response rating, Barnyardgrass (barnyardgrass; 250 g ai/ha): 0 | Plant response rating, Barnyardgrass (barnyardgrass; 500 g ai/ha): 0 | Plant response rating, Barnyardgrass (barnyardgrass; 750 g ai/ha): 30 | Plant response rating, Barnyardgrass (barnyardgrass; 1000 g ai/ha): 40 | Plant response rating, Sprangletop, Bearded (bearded sprangletop; 125 g ai/ha): 20 | Plant response rating, Sprangletop, Bearded (bearded sprangletop; 250 g ai/ha): 20 | Plant response rating, Sprangletop, Bearded (bearded sprangletop; 500 g ai/ha): 20 | Plant response rating, Sprangletop, Bearded (bearded sprangletop; 750 g ai/ha): 20 | Plant response rating, Sprangletop, Bearded (bearded sprangletop; 1000 g ai/ha): 20 | Plant response rating, Junglerice (junglerice; 125 g ai/ha): 0 | Plant response rating, Junglerice (junglerice; 250 g ai/ha): 0 | Plant response rating, Junglerice (junglerice; 500 g ai/ha): 20 | Plant response rating, Junglerice (junglerice; 750 g ai/ha): 25 | Plant response rating, Junglerice (junglerice; 1000 g ai/ha): 25 | Plant response rating, Watergrass, Early (early watergrass; 125 g ai/ha): 0 | Plant response rating, Watergrass, Early (early watergrass; 250 g ai/ha): 0 | Plant response rating, Watergrass, Early (early watergrass; 500 g ai/ha): 20 | Plant response rating, Watergrass, Early (early watergrass; 750 g ai/ha): 25 | Plant response rating, Watergrass, Early (early watergrass; 1000 g ai/ha): 40 | Plant response rating, Redstem (purple redstem; 125 g ai/ha): 0 | Plant response rating, Redstem (purple redstem; 250 g ai/ha): 100 | Plant response rating, Redstem (purple redstem; 500 g ai/ha): 100 | Plant response rating, Redstem (purple redstem; 750 g ai/ha): 100 | Plant response rating, Redstem (purple redstem; 1000 g ai/ha): 100 | Plant response rating, Rice, Water Seeded ([1]; 125 g ai/ha): 20 | Plant response rating, Rice, Water Seeded ([1]; 250 g ai/ha): 35 | Plant response rating, Rice, Water Seeded ([1]; 500 g ai/ha): 45 | Plant response rating, Rice, Water Seeded ([1]; 750 g ai/ha): 45 | Plant response rating, Rice, Water Seeded ([1]; 1000 g ai/ha): 45

CCc1nn(C(C)(C)CC)nc1C(=O)Nc1cccc(C(=O)N(C)C)c1 [Compound 372]
Plant response rating, Beggarticks, Bip. (bipinnate beggarticks; 62 g ai/ha, scale 0 to 100): 10 | Plant response rating, Beggarticks, Bip. (bipinnate beggarticks; 125 g ai/ha, scale 0 to 100): 40 | Plant response rating, Beggarticks, Bip. (bipinnate beggarticks; [5]): 50 | Plant response rating, Beggarticks, Bip. (bipinnate beggarticks; [6]): 60

Cc1nn(C(C)(C)C)nc1C(=O)Nc1cccc(C(=O)N(C)C)c1 [Compound 391]
Plant response rating, Beggarticks, Bip. (bipinnate beggarticks; 62 g ai/ha, scale 0 to 100): 40 | Plant response rating, Beggarticks, Bip. (bipinnate beggarticks; 125 g ai/ha, scale 0 to 100): 80 | Plant response rating, Beggarticks, Bip. (bipinnate beggarticks; [5]): 100 | Plant response rating, Beggarticks, Bip. (bipinnate beggarticks; [6]): 100
